1 compound from patent US20230363382A1, “COMBINATIONS OF TRIAZINONE HERBICIDES WITH SAFENERS” (priority 2020, published 2023) can be followed below.

Like-named read-outs stand apart in the source and are kept apart here.

What all share (details): Metribuzin 840 g ai/ha alone, soil spray
The test system of series [1] is Ipomoea hederacea. The series is described as follows: % weed control in Soybean crop. The format is in vivo.
Method: (§1) Experiments were carried out to evaluate the phytotoxicity, effect on plant height and effect on number of plants standing after treatments with combinations of one or more triazinone herbicides with one or more safeners.
(§2) Application method was spray and applications were made to soil.
Series [2] has as its system Soybean plants. Put plainly: effect on number of standing Soybean plants. It counts as in vivo.
Method: as §1, §2
The subject of series [3] is Soybean crop.
Method: as §1, §2
For series [4], the system named is Soybean crop. The series is described as follows: effect on plant height of Soybean crop. The format is in vivo.
Method: as §1, §2

Take `CSc1nnc(C(C)(C)C)c(=O)n1N` [Metribuzin, 4-amino-6-tert-butyl-4,5-dihydro-3-methylthio-1,2,4-triazin-5-one]: in series [1] (Table 1 treatment set), the “% Weed Control 7 DAA” value is given as 60.0%, the “% Weed Control 14 DAA” value is given as 92.5%, the “% Weed Control 21 DAA” value was 98.8% and the “% Weed Control 28 DAA” value is on record as 95.0%. Also, the “% Weed Control 35 DAA” value in series [1] (Table 1 treatment set) was 96.3%. Also, in series [1] (Table 2 treatment set), the “% Weed Control 7 DAA” value was found to be 72.5%, the “% Weed Control 14 DAA” value came out at 96.3%, the “% Weed Control 21 DAA” value was 96.8% and the “% Weed Control 28 DAA” value was 98.8%. The “% Weed Control 35 DAA” value in series [1] (Table 2 treatment set) came out at 98.8%. For the same compound, the “Number of plants standing 28 DAA” value in series [2] (Table 1 treatment set) turned out to be 3.0. Also, in series [2] (Table 2 treatment set), the “Number of plants standing 28 DAA” value was determined as 3.8. In series [3] (Table 1 treatment set), the “% Phytotoxicity 7 DAA” value came to 6.3% and the “% Phytotoxicity 21 DAA” value came to 65.0%. Besides, in series [3] (Table 2 treatment set), the “% Phytotoxicity 7 DAA” value worked out at 7.5% and the “% Phytotoxicity 21 DAA” value worked out at 62.5%. Also, in series [3] (35 DAA, Table 1 treatment set), the “% Phytotoxicity 35 DAA” value is 81.3%. Besides, the “Plant height 28 DAA” value in series [4] (Table 1 treatment set) is 5.80. Further, the “Plant height 28 DAA” value in series [4] (Table 2 treatment set) was 7.05.
